We go through five compounds from patent US8329757B2, “Curcumin analog compositions and related methods” (Charlesson, LLC, priority 2008, dated 2012).

What all share (assay type): cell-based
In assay [1] the test system is pericytes. The assay can be described thus: MTT cell proliferation assay, pericytes. To be noted: 72 hours. As to the method:
(§1) Primary bovine retinal capillary endothelial cells (BRCECs), pericytes and human prostate adenocarcinoma cells (PC-3), and human breast cancer cells (MCF-7 and MDA-MB-231) were treated with the CLT010 compounds at various concentrations for 72 hours.
On the technique in general: Tetrazolium assays rely on reduction of a dye to a coloured formazan, in cell work by metabolically active cells.

In assay [2] the test system is human breast cancer cells (MDA-MB-231). As to the kind of experiment: MTT cell proliferation assay, MDA-MB-231. As to conditions: mean±SD, n=3. The procedure:
as §1

For assay [3], the system named is PC-3M. The assay can be described thus: MTT cell proliferation assay, PC-3M. To be noted: 72 hours, mean±SD, n=3. As to the method: [The source words this procedure for another cell line and reports this cell line under the same test.] as §1
Assay [4] deals with VEGF in human retinal capillary endothelial cells (HRCECs). The assay can be described thus: CoCl2-induced VEGF over-expression, ELISA of conditioned medium. To be noted: 24 h, CoCl2 200 μM; for reduction of VEGF levels: n=3. As to the method:
To address if new antioxidants block VEGF over-expression induced by hypoxia, we measured levels of VEGF in human retinal capillary endothelial cells (HRCECs) after the exposure of CLT010-01, CLT010-07, and CLT010-12. The effect of new oxidants was compared with curcumin. HRCECs were seeded at a density of 4×10^4 cells/well in 400 μl of growth medium in triplicate in gelatin-coated 24-well plates, 24 h prior to the experiments. VEGF over-expression was induced by 200 μM of cobalt chloride (CoCl2). Cells were incubated with the medium in the presence or absence of CoCl2 and CoCl2 plus curcumin, CLT010-01, CLT010-07 and CLT010-12 at the concentrations of 0.5, 2, and 4 μM. The conditioned medium was collected 24 h after treatment. VEGF concentrations were measured by ELISA specific for VEGF using a commercial kit (R & D Systems, Minneapolis, Minn.). CoCl2 induced VEGF over-expression by 53.1±13.9%, compared to the untreated cells. The novel antioxidants reduced the expression of VEGF (FIGS. 3A and 3B). CLT010-01 reduced the VEGF levels by 48.8±7.8% at 4 μM (p<0.001, n=3). CLT010-07 inhibited the VEGF levels by 45.2±8.5 (p<0.01, n=3) and 57.2±4.4% (p<0.001, n=3) at 2 and 4 μM, respectively. CLT010-12 suppressed the VEGF expression by 24.2±10 (p<0.01, n=3), 58.2±7.2 (p<0.001, n=3), and 67.3±4.4% (p<0.001, n=3) at 0.5, 2 and 4 μM (p<0.001, n=3), respectively (FIG. 3B).
According to embodiments of experimental data shown in FIG. 3, HRCECs were cultured in the presence or absence of CoCl2, CoCl2 plus curcumin, CLT010-01, CLT010-07, and CLT010-12 at concentrations as indicated. The conditioned medium was collected after 24 h treatment. VEGF levels were measured by ELISA. In FIG. 3A, VEGF concentrations in the medium from the untreated cells, CoCl2-treated cells, and CoCl2 plus compound-treated cells are shown. In FIG. 3B, the percentage of VEGF concentrations in the medium from CoCl2 plus compound-treated cells compared with that of the medium from CoCl2-treated cells is shown. CoCl2 plus compounds plus vs. CoCl2: *p<0.01, p<0.001, n=3.
(In general: ELISA stands for enzyme-linked immunosorbent assay.)

The subject of assay [5] is TNF-α-stimulated generation of reactive oxygen species in human retinal pigment epithelial cells (ARPE-19). The assay can be described thus: TNF-α-stimulated intracellular ROS generation (CM-H2DCFDA fluorescence). As to conditions: for reduction of ROS: 24 h pretreatment, TNF-α 20 ng/ml, ARPE-19, n=6; for effect on ROS production: same concentration range (2-8 μM), same conditions. As to the method: The intracellular generation of ROS was stimulated by TNF-α. Human retinal pigment epithelial cells (ARPE-19) were cultured on 96-well plates and pretreated with or without aminoguanidine, curcumin, and the CLT010 compounds for 24 h. TNF-α was added into culture medium at the concentration of 20 ng/ml and incubated with the cells for 1 h at 37° C. To measure ROS generation, 5-(and -6)-chloromethyl-2′,7′-dichlorodihydrofluorescein diacetate (CM-H2DCFDA) was added to the cells and incubated for 45 min. The relative fluorescence intensity representing the intracellular generation of ROS was measured using FLUOstar Omega at an emission wavelength of 535 nm, after excitation at 485 nm. TNF-α stimulated the intracellular generation of ROS by 36.9±8.4%, compounded with the untreated cells. Novel antioxidants reduced the intracellular ROS. At concentration of 8 μM, CLT010-01 reduced ROS by 40.5±6.3% (p<0.01, n=6), and CLT010-07 reduced ROS by 50.6±6.8% (p<0.01, n=6).
According to embodiments of experimental data shown in FIG. 2, ARPE-19 cells were pretreated with aminoguanidine, curcumin, CLT010-01, CLT010-07, and CLT010-12 at indicated concentrations for 24 h prior to the addition of TNF-α (20 ng/ml). The cells were incubated with CM-H2DCFDA for 45 min. Relative fluorescent intensity in the untreated cells, TNF-α-stimulated cells and compound plus TNF-α-treated cells. In FIG. 2B, the percentage of relative fluorescent intensity in each compound plus TNF-α-treated cells compared with that of TNF-α-stimulated cells is shown as the compound plus TNF-α vs TNF-α alone: *p<0.05, p<0.01, n=6.

The test system of assay [6] is human breast cancer cells (MCF-7). The assay can be described thus: MTT cell proliferation assay, MCF-7. As to conditions: mean±SD, n=3. The procedure:
as §1

Assay [7] relates to human prostate adenocarcinoma cells (PC-3). The assay can be described thus: MTT cell proliferation assay, PC-3. As to conditions: 72 hours, mean±SD, n=3. As to the method:
as §1

For assay [8], the system named is Du145. As to the kind of experiment: MTT cell proliferation assay, Du145. To be noted: mean±SD, n=3. The procedure: [The source words this procedure for another cell line and reports this cell line under the same test.] as §1
The subject of assay [9] is Primary bovine retinal capillary endothelial cells (BRCECs). As to the kind of experiment: MTT cell proliferation assay, BRCECs. As to conditions: 72 hours, mean±SD, n=3, read-out: IC50 (μM) BRCEC. The procedure: as §1
The subject of assay [10] is cancer cells. As to the kind of experiment: MTT cell proliferation assay, cancer cells (summary over lines). To be noted: Homo sapiens, 72 hours, range across cancer cell lines, read-out: IC50, growth of cancer cells (range over cell lines). The procedure: as §1

Where two headings read alike, the source gives them in different places.

Regarding `COc1cc(/C=C/C(=O)CC(=O)/C=C/c2ccc(OS(N)(=O)=O)c(OC)c2)ccc1OS(N)(=O)=O` [CLT010-01], the “inhibition of the growth of pericytes” value in assay [1] is reported as “did not significantly inhibit”. Further, the IC50 in [2] (72 hours) worked out at 3.1 ± 1.3 µM; in assay [3] it was 8.5 ± 0.5 µM; in [6] (72 hours), 5.5 ± 1.2 µM; in assay [7], 15.8 ± 1.6 µM; in [8] (72 hours), 25.9 ± 0.3 µM. Also, the “reduction of VEGF levels” value in assay [4] (4 μM) stood at 48.8±7.8%. The “reduction of ROS” value in [5] (8 μM) is on record as 40.5±6.3%.

Take `COc1cc(/C=C/C(=O)/C=C/c2cc(OC)c(OS(N)(=O)=O)c(OC)c2)cc(OC)c1OS(N)(=O)=O` [CLT010-12]: the “inhibition of the growth of pericytes” value in assay [1] is given as “did not significantly inhibit”. The IC50 in [2] (72 hours) came out at 0.6 ± 0.1 µM; in [3], 4.2 ± 0.1 µM; in assay [6] (72 hours), 1.5 ± 0.1 µM; in [7], 1.9 ± 0.04 µM; in assay [9], 3.6 ± 0.2 µM; in assay [8] (72 hours) it was 6.3 ± 0.2 µM. For the same compound, the results for the “reduction of VEGF levels” value in [4] (0.5 μM), in [4] (2 μM) and in [4] (4 μM) were 24.2±10%, 58.2±7.2% and 67.3±4.4%, respectively. Moreover, the “reduction of ROS” value is 15.3±2.9% in [5] (2 μM), 32.9±5.9% in assay [5] (4 μM) and 55.1±3.9% in [5] (8 μM).

Consider `COc1cc(/C=C/C(=O)CC(=O)/C=C/c2ccc(O)c(OC)c2)ccc1O` [Curcumin], for which the IC50 was 25.6 ± 4.8 µM in [2] (Homo sapiens, MDA-MB-231, 72 hours); 10.7 ± 1.3 µM in [3] (Homo sapiens, PC-3M); 9.5 to 25.6 µM in assay [10]; 21.5 ± 4.7 µM in assay [6] (Homo sapiens, MCF7, 72 hours); 9.5 ± 1.6 µM in assay [7] (Homo sapiens); 13.8 µM in assay [9] (Bos taurus, Endothelial cell). The IC50 in assay [8] (Homo sapiens, DU-145, 72 hours) worked out at 20.7 ± 3.5 µM. The “inhibition of the release of VEGF from cells into medium” value in assay [4] (0.5, 2, and 4 μM, p>0.05, n=3) was “did not significantly inhibit”. Further, the “effect on ROS production” value in [5] is “did not significantly affect”.

For `N=C(N)NN` [Aminoguanidine, reference compound], the “effect on ROS production” value in assay [5] was “did not significantly affect”. For the same compound, the IC50 in assay [9] (Bos taurus, Endothelial cell) is above 32 µM.

For the compound `COc1cc(/C=C/c2cc(/C=C/c3ccc(OS(N)(=O)=O)c(OC)c3)[nH]n2)ccc1OS(N)(=O)=O` [CLT010-07], in assay [1], the “inhibition of the growth of pericytes” value was “did not significantly inhibit”. Moreover, the IC50 in assay [2] (72 hours) was found to be 6.2 ± 1.6 µM; in assay [3], 6.7 ± 0.7 µM; in [6] (72 hours), 6.5 ± 0.1 µM; in assay [7], 1.8 ± 0.3 µM; in assay [9] it was 3.9 ± 0.1 µM; in assay [8] (72 hours), 5.3 ± 2.4 µM. The “reduction of VEGF levels” value was found to be 45.2±8.5% in [4] (2 μM) and 57.2±4.4% in [4] (4 μM). Also, in [5] (8 μM), the “reduction of ROS” value came out at 50.6±6.8%.

A word on the IC50: it is the point on the concentration scale where inhibition reaches its midpoint.
